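Briefly, cells in 96-well plates were exposed to five compound concentrations for 48 h, and endpoints were estimated by linear interpolation. TGI: concentration producing complete growth inhibition.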

What all share (test): NCI anticancer screen, dose series, 48 h
Assay [1] deals with RXF 393 renal.
The subject of assay [2] is SW-620 colon.
Assay [3] deals with 786-0 renal.
The test system of assay [4] is HOP-62 NSCLC.
Assay [5] has as its system HCT-116 colon.
Assay [6] deals with SK-MEL-28 melanoma.
Assay [7] deals with SF-268 CNS.
In assay [8] the test system is MDA-N.
In assay [9] the test system is U251 CNS.
Assay [10] has as its system COLO 205 colon.
Assay [11] deals with HT29 colon.
Assay [12] has as its system K-562 leukemia.
The test system of assay [13] is EKVX NSCLC.
The subject of assay [14] is M14 melanoma.
Assay [15] has as its system MALME-3M melanoma.
The subject of assay [16] is SF-539 CNS.
In assay [17] the test system is OVCAR-3 ovarian.

Regarding `CN=CN(C)c1c2ccccc2nc2ccccc12`, the TGI in [1], in [2], in assay [3], in [4], in [5] and in assay [6] was over 100 µM throughout. Also, the TGI in [7], in [8], in [9], in assay [10], in assay [11] and in assay [12] was over 100 µM each time. Also, the TGI in assay [13], in assay [14], in assay [15], in assay [16] and in assay [17] was over 100 µM throughout.
As to `NC(=O)NO`, the TGI is 1880 µM in assay [1]; over 2500 µM in [2]; 1770 µM in [3]; 2220 µM in assay [4]; over 2500 µM in assay [5]; over 2500 µM in assay [6]. Moreover, the TGI is 2340 µM in [7]; over 2500 µM in [8]; 2330 µM in [9]; over 2500 µM in assay [10]; over 2440 µM in assay [11]; over 2260 µM in assay [12]. Also, the TGI in assay [13] was over 2460 µM; in [14], 1950 µM; in assay [15], 2480 µM; in assay [16], 1440 µM; in assay [17], 2500 µM.
With `CC(=O)CCC(=O)C(=[N+]=[N-])S(=O)(=O)c1ccccc1`, the TGI in assay [1], in assay [2], in [3], in assay [4], in assay [5] and in assay [6] was over 100 µM in each case. The TGI in [7], in assay [8], in assay [9], in assay [10], in [11] and in assay [12] was over 100 µM throughout. Further, the TGI in [13], in assay [14], in assay [15], in [16] and in assay [17] was over 100 µM throughout.
With `C(=Nc1ccc(-c2cc(-c3ccccc3)nc3ccc4ccccc4c23)cc1)c1ccccc1`, the TGI is 47.9 µM in [1]; over 100 µM in [2]; over 100 µM in [3]; 56.1 µM in assay [4]; over 100 µM in [5]; over 100 µM in assay [6]. In addition, the TGI is over 100 µM in [7]; over 100 µM in [8]; over 100 µM in [9]; 42.6 µM in assay [10]; 40.3 µM in assay [11]; over 100 µM in assay [12]. Also, the TGI in [13] was 92.8 µM; in [14] it was 50.4 µM; in [15] it was over 100 µM; in [16], 66.3 µM; in [17], 68.9 µM.
`CC(O)(/C=C/c1ccccc1)P(=O)(O)c1ccccc1` (stereo unspecified): the TGI in [1], in assay [2], in [3], in [4], in [5] and in assay [6] was over 100 µM each time. Further, the TGI in assay [7], in assay [8], in assay [9], in [10], in assay [11] and in assay [12] was over 100 µM throughout. For the same compound, the TGI in assay [13], in assay [14], in assay [15], in assay [16] and in assay [17] was over 100 µM each time.
Regarding `CCOP(=O)(OCC)/C(C#N)=C/c1ccc(-c2ccc(F)cc2F)o1`, the TGI in assay [1] was over 100 µM; in assay [2] it was 38.5 µM; in [3], 27.4 µM; in [4], 33.8 µM; in [5], 32.3 µM; in [6] it was 28.1 µM. Moreover, the TGI in assay [7] was 44.3 µM; in assay [8], 48.7 µM; in [9], 32.6 µM; in assay [10], 30.7 µM; in assay [11] it was 33.1 µM; in assay [12] it was 38.1 µM. Besides, the TGI in [13] worked out at 31 µM; in assay [14], 31.7 µM; in assay [15], 33.4 µM; in assay [16] it was 35.8 µM; in assay [17], 30.1 µM.
Consider `COc1ccc(Cc2c(N)[nH]c(=O)n(C)c2=O)cc1`, for which the TGI in [1], in assay [2], in assay [3], in [4], in assay [5] and in assay [6] was over 100 µM throughout. The TGI in assay [7], in assay [8], in assay [9], in [10], in [11] and in assay [12] was over 100 µM in each case. In addition, the TGI in assay [13], in assay [14], in [15], in [16] and in assay [17] was over 100 µM each time.
In the case of `COc1cc(C[C@H]2C(=O)OC[C@@H]2Cc2ccc(OC)c(OC)c2)cc(OC)c1`, the TGI in [1], in [2], in [3], in [4], in assay [5] and in assay [6] was over 100 µM each time. In addition, the TGI in assay [7], in assay [8], in [9], in assay [10], in assay [11] and in assay [12] was over 100 µM each time. Also, the TGI in assay [13], in [14], in assay [15], in [16] and in [17] was over 100 µM throughout.

For the origin of these results see PubChem BioAssay (NCI).
